From PubChem BioAssay (NCI) come the findings set out here.

Holding throughout (assay): NCI anticancer screen, dose series, 48 h
Test [1] deals with SNB-75 CNS.
For test [2], the system named is NCI-H23 lung.
Test [3] has as its system NCI-H522 lung.
The subject of test [4] is A498 renal.
Test [5] concerns LOX IMVI melanoma.
Test [6] has as its system SR leukemia.
Test [7] concerns SN12C renal.
For test [8], the system named is MOLT-4 leukemia.
For test [9], the system named is DU-145 prostate.
The test system of test [10] is NCI/ADR-RES ovarian.

“And” between values parts separate entries of the source, which are not always exact repeats. Equal values may be shown once.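 Where inhibition never reached the appropriate level, the endpoint shown equals the highest concentration tested. Otherwise, values were interpolated linearly from a five-concentration, 48-hour dose response in 96-well plates. Here, GI50 denotes the concentration required for 50% inhibition of growth. TGI is the concentration that stops growth completely.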 Where only a bound is given, the exact number is not on record here.

Take `O=C1c2ccccc2C(=O)c2c1ccc1c2N=C(c2ccc(F)cc2)CC(c2ccc(Cl)c(Cl)c2)N1` (configuration not stated): the TGI came out at 40.2 µM in test [1]; 33.4 µM in test [2]; 20.4 µM in test [3]; 54.9 µM in test [4]; 18.3 µM in test [5]; 54.4 µM in [6]. The TGI in test [7] was 32.4 µM; in test [8], greater than 100 µM.
Consider `Cc1ccc(S(=O)(=O)NC(=O)NCCC(=O)O)cc1`, for which the TGI in test [1], in test [2], in test [3], in [5], in test [6] and in [7] was greater than 100 µM throughout. The TGI in [8] and in test [9] was greater than 100 µM each time.
On to `C[C@@H]1C[C@]2(C[C@@H](C)[C@H]3C(C[C@@]4(C)CCC[C@@H]5C6=C[C@H](CCC34C)OC6=CC(=O)OC5(C)C)O2)OC1=O` (some centres not stated), for which the TGI in [1] is 47.5 µM; in test [2], greater than 51.5 µM; in [3], greater than 51.5 µM; in test [4] it was greater than 51.5 µM; in test [5], greater than 51.5 µM; in [7], greater than 51.5 µM. Moreover, the TGI in [10] and in [8] was greater than 51.5 µM each time.
For `CCOC(=O)c1c2c(n(-c3ccc(OC)cc3)c1C)C(=O)C(=O)c1ccccc1-2`, the TGI was 4.09 µM in test [1]; 3.24 µM in [2]; greater than 20.4 µM in [3]; 3.97 µM in test [4]; 2.49 µM in test [5]; 3.19 µM in test [7]. Moreover, the TGI was 2.01 µM in test [10], greater than 100 µM in test [8] and 3.06 µM in test [9]. In addition, the GI50 is 1.76 µM in test [4] and 1.66 µM in [8].
On to `COc1ccc(C[C@H](N)C(=O)N2C[C@H](CO)C[C@H](n3ccc(=O)[nH]c3=O)C2)cc1`, for which the TGI in test [2], in [3], in test [5], in [6], in test [7] and in test [8] was greater than 100 µM each time.
On to `Cc1cc(=O)n2nc(CSc3nnc(N)s3)sc2n1`, for which the TGI in [1], in [2], in test [3], in [5], in test [7] and in test [10] was greater than 100 µM each time. Also, the TGI in test [8] and in test [9] was greater than 100 µM each time.
For `C=CCN(c1cc(OCc2ccccc2)c(NC(C)=O)cc1[N+](=O)[O-])S(C)(=O)=O`, the TGI was 43.6 µM in test [1]; 32.3 µM in [2]; greater than 100 µM in test [3]; 41.6 µM in test [4]; greater than 100 µM in test [5]; greater than 100 µM in test [7]. Also, the TGI in test [10], in [8] and in test [9] was greater than 100 µM each time.
For the compound `CCOC(=O)c1c2c(n3ccc(NC(=O)OC(C)(C)C)cc13)C(=O)c1ncccc1C2=O`, the GI50 is 0.167 µM in test [1]; 0.147 µM in [2]; 0.179 µM in test [3]; 0.0339 µM in [4]; 0.071 µM in [7]; 0.78 µM in test [8]. Besides, in [9], the GI50 was 0.0653 µM. In addition, the TGI was found to be 1.72 µM in test [1]; 0.669 µM in [2]; 0.817 µM in test [3]; 4.44 µM in [4]; 1.21 µM in test [7]; 7.52 µM in test [8]. In test [9], the TGI amounted to 1.66 µM.
For the compound `O=C1CCCC2=C1C(c1ccc3c(c1)OCO3)Nc1ccc3ccccc3c12` (configuration not stated), the TGI in [1], in test [2], in [3], in [4], in [7] and in test [10] was greater than 100 µM in each case. This compound also registered a TGI in test [9] greater than 100 µM.
For the compound `C1#Cc2ccccc2OCCOc2ccccc2C#Cc2ccccc2OCCOc2ccccc21`, the TGI in test [2] is 34.8 µM; in [3] it was 49.8 µM; in [4], 37.8 µM; in [5], 33.4 µM; in test [7], greater than 100 µM; in [10] it was greater than 100 µM. In addition, the TGI in [8] was 31.3 µM; in [9] it was greater than 100 µM.
For `COC(=O)c1nc(-c2ccc3c(n2)C(=O)C(N)=C(OC)C3=O)c(N)c(-c2ccc(OC)c(OC)c2O)c1C`, the TGI in test [1] stood at 3.73 µM; in [2], 1.38 µM; in [3], 2.43 µM; in test [4], 3.17 µM; in test [7], 2.69 µM; in test [10], 3.09 µM.
Consider `O=C(NNc1cn[nH]c(=O)c1Cl)/C(=C/c1ccc2c(c1)OCO2)NC(=O)c1ccccc1`, for which the TGI in test [1] was 86.2 µM; in [2], greater than 100 µM; in test [5], greater than 100 µM; in test [7] it was greater than 100 µM; in test [10] it was greater than 100 µM; in [8], greater than 100 µM. This compound also came in with a TGI in [9] greater than 100 µM.
With `COc1ccc(C[C@H](N)C(=O)N2C[C@H](CO)C[C@H](n3cnc4c(N(C)C)ncnc43)C2)cc1`, the TGI in [2], in [3], in [5], in [6], in test [7] and in [8] was greater than 100 µM in each case.
For `COc1ccccc1NC(=S)N/N=C(/C)c1ccccn1`, the TGI in test [1] was 49.2 µM; in test [2] it was greater than 100 µM; in test [3], greater than 100 µM; in test [5] it was 67.2 µM; in [7] it was 6.73 µM; in test [8], greater than 100 µM. The same compound displayed a TGI in test [9] greater than 100 µM.
For `NCCNCCCCCCNC(=O)c1cccc2cc3ccccc3nc12`, the TGI is 11.8 µM in test [1]; 6.81 µM in [2]; 4.52 µM in test [3]; 9.49 µM in test [4]; 2.96 µM in test [5]; 7.8 µM in [7]. Moreover, the TGI in [10] turned out to be 38.4 µM; in [8], 4.47 µM; in [9], 2.92 µM.
Take `CC1(C)[C@@H](Cn2cnc3c(=O)[nH]c(N)nc32)CC[C@@]1(C)CO`: the TGI in [1], in test [4], in test [5], in [7], in test [10] and in test [8] was greater than 100 µM each time. The same compound returned a TGI in test [9] greater than 100 µM.
Regarding `COc1c(OC)c(O)c2c(=O)c(OC)c(-c3ccc4c(c3)OCO4)oc2c1O`, the TGI in test [1], in [2], in [3], in [4], in test [5] and in test [7] was greater than 100 µM in each case. For the same compound, the TGI in [10], in test [8] and in test [9] was greater than 100 µM in each case.
As to `CCNC(=O)/C=C/CCC#Cc1ccc(-c2ccc(-c3cccs3)s2)s1`, the TGI in test [1], in test [2], in test [3], in test [5], in [6] and in test [8] was greater than 100 µM in each case.
Take `C=C(CC(=O)Nc1ccc(C(=O)OC)o1)C(=O)OC`: the TGI in test [1] was greater than 100 µM; in [2], 72.7 µM; in test [3], 38 µM; in test [4], greater than 100 µM; in test [5], greater than 100 µM; in [7], 45.2 µM. Also, the results for the TGI in test [10], in test [8] and in [9] were greater than 100 µM, 47.8 µM and greater than 100 µM, respectively.
Regarding `COc1cccc2c1C1(O)C2CCCC12OCCCO2` (configuration not stated), the TGI in test [1], in test [2], in [3], in [4], in test [5] and in [7] was greater than 100 µM throughout. Moreover, the TGI in test [8] is greater than 100 µM.
Take `CCCn1c(=O)c2ccccc2[n+]2c(-c3ccc([N+](=O)[O-])cc3)csc12`: the TGI in test [1] is 94.6 µM; in [2] it was greater than 100 µM; in test [3] it was 45.5 µM; in test [4], 74.4 µM; in [5], 51.3 µM; in test [7], greater than 100 µM. Moreover, the TGI in test [10] is 36.5 µM; in [8], 79.9 µM; in [9] it was greater than 100 µM.
Turning to `CC1CCc2c(sc3ncnc(N/N=C/c4ccc(Cl)c(Cl)c4)c23)C1` (configuration not stated), the TGI was 61.6 µM in test [1]; 79.8 µM in test [2]; 21 µM in test [3]; 54.6 µM in test [5]; 33 µM in test [6]; greater than 100 µM in test [7]. The same compound had a TGI in test [8] greater than 100 µM.
`CC(=O)NC1=C(C)C(=O)c2c(nc3n2CCC3O)C1=O` (configuration not stated): the TGI in [1] is greater than 100 µM; in test [2], greater than 89.8 µM; in test [3], 68.2 µM; in test [4] it was greater than 100 µM; in test [5], greater than 100 µM; in [6], 35 µM. Also, the TGI is greater than 100 µM in test [7] and 16.6 µM in [8].
Consider `CC(=O)NC1C(OCc2ccccc2)OC(CO)C(O)C1OCC(=O)NC(C)C(=O)NC(CCC(=O)NCCCCCNc1c2ccccc2nc2cccc([N+](=O)[O-])c12)C(N)=O` (configuration not stated), for which the TGI is 0.00164 µM in test [1]; 0.0045 µM in [3]; less than 0.0001 µM in test [4]; 0.0147 µM and 0.014 µM in test [5]; less than 0.0001 µM in [7].
Regarding `CCc1nn(S(=O)(=O)c2ccc(C)cc2)c2c1CS(=O)(=O)CC2`, the TGI in test [1], in [2], in test [4], in test [7], in [10] and in test [8] was greater than 100 µM in each case. Also, the TGI in [9] was greater than 100 µM.
As to `COc1ccc2c(c1)nc1n2C(N)=Nc2ccccc2S1`, the TGI in test [1] was greater than 100 µM; in [2], greater than 100 µM; in test [3] it was greater than 100 µM; in test [4] it was greater than 88.4 µM; in test [5] it was greater than 72.8 µM; in test [7] it was greater than 100 µM. Moreover, the TGI in [10] is greater than 100 µM; in test [8], greater than 56.6 µM; in [9] it was greater than 100 µM.
With `CN(C)CCOC(=O)c1ccc(N)cc1`, the TGI is greater than 100 µM in test [2]; 68.1 µM in test [3]; greater than 100 µM in [4]; greater than 100 µM in [5]; greater than 100 µM in test [7]; greater than 100 µM in test [10]. In addition, the TGI in test [8] is 61.5 µM; in test [9] it was greater than 100 µM.
Regarding `CSc1nc(NC2OCC(O)C(O)C2O)c(N)c(=O)n1C` (configuration not stated), the TGI in [1], in test [2], in test [3], in test [4], in test [5] and in test [7] was greater than 100 µM throughout. The TGI in [10] and in test [8] was greater than 100 µM in each case.
Turning to `CC(=O)OCc1cc(=O)n(C)c2c3c4c(cc12)c(C)cc(=O)n4CO3`, the TGI in test [1] is 4.69 µM; in test [2], 5.01 µM; in [3], 2.16 µM; in [4], 5.3 µM; in test [5] it was 8.6 µM; in [7], 30.8 µM. In addition, the TGI in [10] was 10.9 µM; in test [8], 4.25 µM.
On to `COc1ccc(/C=C2\CC3C4CC=C5C[C@@H](O)CC[C@]5(C)C4CC[C@]3(C)\C2=N\O)cc1OC` (some centres not stated), for which the TGI in test [1] is greater than 100 µM; in test [2], greater than 100 µM; in [3] it was greater than 100 µM; in test [4] it was 86.2 µM; in test [5], greater than 100 µM; in [7], greater than 100 µM. The TGI in test [10], in [8] and in test [9] was greater than 100 µM each time.
For `OCC(O)C1OC2CC1Nc1ccccc1N2` (configuration not stated), the TGI in test [1], in test [2], in test [3], in test [4], in test [5] and in test [7] was greater than 100 µM throughout. Further, the TGI in [10], in test [8] and in test [9] was greater than 100 µM in each case.
